Laboratory results as given in ChEMBL document CHEMBL3864127, “Janadolide, a Cyclic Polyketide-Peptide Hybrid Possessing a tert-Butyl Group from an Okeania sp. Marine Cyanobacterium” (J Nat Prod, 2016).

Assays:
[1] = tested on: Trypanosoma brucei brucei; assay: Antitrypanosomal activity against bloodstream form of Trypanosoma brucei brucei GUTat 3.1 after 72 hrs by Alamar blue assay; format: functional; details: GUTat 3.1, 72 h
[2] = Cytotoxicity against human MRC5 cells assessed as cell growth inhibition at 10 uM after 7 days by MTT assay; format: toxicity, cell-based; details: mrc5, 168 h
[3] = Cytotoxicity against human HeLa cells assessed as cell growth inhibition at 10 uM after 72 hrs by MTT assay; format: toxicity, cell-based
[4] = Cytotoxicity against human HL60 cells assessed as cell growth inhibition at 10 uM after 72 hrs by MTT assay; format: toxicity, cell-based; details: hl-60, 72 h

| Structure (SMILES) | IC50 [1] [nM] | Activity [2] | Activity [3] | Activity [4] |
| --- | --- | --- | --- | --- |
| Cc1ccc(C(=O)Nc2ccc(S(=O)(=O)O)c3cc(S(=O)(=O)O)cc(S(=O)(=O)O)c23)cc1NC(=O)c1cccc(NC(=O)Nc2cccc(C(=O)Nc3cc(C(=O)Nc4ccc(S(=O)(=O)O)c5cc(S(=O)(=O)O)cc(S(=O)(=O)O)c45)ccc3C)c2)c1 [SURAMIN] | 1200 | – | – | – |
| C/C1=C\[C@@H](C(C)(C)C)OC(=O)[C@H](CC(C)C)N(C)C(=O)[C@H](C)N(C)C(=O)CNC(=O)[C@H](C(C)C)NC(=O)[C@@H]2CCCN2C(=O)[C@H](C)CC1 | 47 | Non-Toxic | Non-Toxic | Non-Toxic |
